Laboratory results from ChEMBL document CHEMBL1158713, “Anthecotulide: purification, analytical data, absence from chamomile preparations, stability and reactivity, and anti-infective testing” (J Nat Prod, 2005).
Active and inactive are the calls of the source.

What was measured:
Type in all cases: functional, organism-based
Staphylococcus aureus [1] = test: Antimicrobial activity against Staphylococcus aureus at < 10 ug/ml
Enterococcus faecalis = test: Antimicrobial activity against Enterococcus faecalis at < 10 ug/ml
Escherichia coli = test: Antimicrobial activity against Escherichia coli at < 10 ug/ml
Pseudomonas aeruginosa = test: Antimicrobial activity against Pseudomonas aeruginosa at < 10 ug/ml
Staphylococcus aureus [2] = test: Antimicrobial activity against methicillin-resistant Staphylococcus aureus at < 10 ug/ml
Enterococcus faecium = test: Antimicrobial activity against vancomycin-resistant Enterococcus faecium at < 10 ug/ml

Measured: Activity

C=C1C(=O)OCC1C/C=C(\C)CC(=O)C=C(C)C (stereo unspecified)
inactive: all assays above
